pIC50: −log10 of the molar value.
Experiments:
TF-1 cells [1] = assay: TF-1 cells viability in vitro in the presence of IL-4 (JAK1/JAK3 activation); type: cell-based; conditions: for pIC50: Homo sapiens, TF-1, 20 ng/mL IL-4, 72 hours, ATPlite, read-out: JAK1,3 IL4 (EC50, inhibition of viability of TF-1 cells); for JAK2/JAK1,3 Ratio: ratio of TF-1 viability EC50 with IL3 to EC50 with IL4
Experimental: (§1) Assay for TF-1 Cells Viability In Vitro
(§2) The effects of the activity of the compounds of the invention were tested in vitro using cells viability assay described below.
(§3) Tested compounds were dissolved in 100% DMSO, and obtained stock solutions were serially diluted in OptiMEM medium (Reduced Serum Medium-Thermo Fisher Scientific). TF-1 cells (DSMZ no.: ACC 334) in culture medium (80% RPMI 1640+20% FBS) ad in the presence of 5 ng/mL IL-3 or 20 ng/mL IL-4 were deposited on 96-well plates in the volume of 90 μl per well, 10 thousands of cells per well. To a well of the 96-well plate 10 μL of the prepared 10× stock solutions of the compounds. Cells on 96-well plates were incubated with the compounds for 72 hours at 37° C., 5% CO2. Subsequently, viability of the cells was measured using ATPlite kit (Perkin Elmer). For this purpose, 50 μL of lysis buffer (mammalian cell lysis solution) were added to a well of the 96-well plate and the plate was incubated for 10 minutes at 25° C. in a plate thermo-shaker with orbital stirring at 600 rpm. Then to a well of the 96-well plate 50 μL of substrate (substrate solution) were added and incubated for 15 minutes at in dark, in a plate thermo-shaker with orbital stirring at 600 rpm. After incubation time, luminescence intensity in a well was measured using Victor×Light luminometer (Perkin Elmer, Inc.).
(§4) On the basis of luminescence intensity measurements in well containing tested compounds at various concentrations and in control wells EC50 values were determined. These values were determined with Graph Pad software v. 5.03, by fitting points of the curve using non-linear regression method. Each compound was tested in at least 6 repetitions (6 wells) on two 96-well plates, using at least 3 wells of each control.

Recombinant kinase JAK2 = Recombinant kinase JAK2 (Homo sapiens (Human), UniProt O60674); assay: In vitro JAK kinase inhibition assay (ADP-Glo), JAK2; type: biochemical; conditions: 30 μM ATP, peptide IGF-1Rtide, averaged
Sequence of Recombinant kinase JAK2 (O60674 whole entry): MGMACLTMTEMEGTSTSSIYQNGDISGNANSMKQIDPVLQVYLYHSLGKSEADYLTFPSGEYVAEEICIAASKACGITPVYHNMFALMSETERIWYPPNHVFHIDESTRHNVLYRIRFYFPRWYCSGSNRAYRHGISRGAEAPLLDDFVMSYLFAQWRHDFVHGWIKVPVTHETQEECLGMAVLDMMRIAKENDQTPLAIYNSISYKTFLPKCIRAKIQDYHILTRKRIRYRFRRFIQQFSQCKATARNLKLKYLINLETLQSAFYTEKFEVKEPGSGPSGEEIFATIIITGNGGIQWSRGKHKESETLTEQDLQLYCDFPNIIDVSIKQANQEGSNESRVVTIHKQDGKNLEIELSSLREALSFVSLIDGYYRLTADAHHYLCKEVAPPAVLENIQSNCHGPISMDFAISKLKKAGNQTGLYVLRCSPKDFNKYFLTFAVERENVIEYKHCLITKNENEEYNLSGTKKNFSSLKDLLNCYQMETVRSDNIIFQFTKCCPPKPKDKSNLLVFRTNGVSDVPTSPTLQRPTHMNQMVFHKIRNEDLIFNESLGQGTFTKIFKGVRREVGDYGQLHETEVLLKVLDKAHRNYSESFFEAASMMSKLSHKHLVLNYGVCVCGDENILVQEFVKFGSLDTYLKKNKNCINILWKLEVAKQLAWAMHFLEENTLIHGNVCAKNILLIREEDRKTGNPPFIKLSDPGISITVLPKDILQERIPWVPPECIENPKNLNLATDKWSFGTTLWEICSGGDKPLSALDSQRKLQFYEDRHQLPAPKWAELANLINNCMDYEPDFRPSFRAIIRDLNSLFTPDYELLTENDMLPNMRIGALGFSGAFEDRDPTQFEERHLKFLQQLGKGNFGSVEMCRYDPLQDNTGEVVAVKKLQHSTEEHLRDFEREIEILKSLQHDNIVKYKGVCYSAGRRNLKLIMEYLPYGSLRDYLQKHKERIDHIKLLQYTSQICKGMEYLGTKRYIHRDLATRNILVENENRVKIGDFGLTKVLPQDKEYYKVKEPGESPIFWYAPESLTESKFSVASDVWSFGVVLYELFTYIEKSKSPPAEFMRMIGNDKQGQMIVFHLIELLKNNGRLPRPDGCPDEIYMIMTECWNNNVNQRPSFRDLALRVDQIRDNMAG
Experimental: (§5) In Vitro JAK Kinase Inhibition Assay
(§6) The effects of the compounds of the invention were analysed in vitro using kinase JAK inhibition assay described below.
Tested compounds were dissolved in 100% DMSO, and obtained stock solutions were serially diluted in the reaction buffer (50 mM Tris pH 7.5, 10 mM MgCl2, 0.25 mM EGTA, 0.1 mM Na3VO4, 0.01% Triton X-100, 2.5 mM DTT). Recombinant kinases JAK1 (ProQinase), JAK2, or JAK3 (Carna Biosciences) were diluted in the dilution buffer (50 mM Tris-HCl pH 7.5, 150 mM NaCl, 10% glycerol, 0.05% Triton X-100, 1 mM DTT) to the final concentration 3 ng/μL (JAK1), 0.1 ng/μL (JAK2), or 0.2 ng/μL (JAK3). 5 μL of obtained solution of the compounds and 5 μL of the solution of respective kinases were added to the well of a 96-well plate. To initiate interaction between tested compounds and an enzyme, the plate was incubated for 10 minutes at 25° C. in a Plate-Thermo-Shaker with orbital stirring at 400 rpm. Wells of a negative control contained all reagents as mentioned above with the exception of tested compounds and kinase, and wells of a positive controls contained all reagents as mentioned above with the exception of tested compounds. […] Then the plate was incubated for 1 hour at 25° C. in a Plate-Thermo-Shaker, with orbital stirring at 400 rpm. Detection of ADP formed in the enzymatic reaction was then performed using ADP-Glo Kinase Assay kit (Promega). For this purpose, to the well of the 96-well plate 25 μL of ADP-Glo Reagent were added, and the plate was incubated for 40 minutes at 25° C. in a Plate-Thermo-Shaker with orbital stirring at 400 rpm. Then to the well of the 96-well plate 50 μL of Kinase Detection Reagent were added and the plate was incubated for 30 minutes at 25° C. in a Plate-Thermo-Shaker with orbital stirring at 400 rpm. After incubation, luminescence intensity was measured using Victor×Light luminometer (Perkin Elmer, Inc.).
as §4, with “luminescence measurement” for “luminescence intensity measurements”, “in wells” for “in well”, “control wells, IC50” for “control wells EC50”

Recombinant kinase JAK1 = Recombinant kinase JAK1 (Homo sapiens (Human), UniProt P23458); assay: In vitro JAK kinase inhibition assay (ADP-Glo), JAK1; type: biochemical; conditions: 30 μM ATP, peptide IRS-1, averaged
Sequence of Recombinant kinase JAK1 (P23458 whole entry): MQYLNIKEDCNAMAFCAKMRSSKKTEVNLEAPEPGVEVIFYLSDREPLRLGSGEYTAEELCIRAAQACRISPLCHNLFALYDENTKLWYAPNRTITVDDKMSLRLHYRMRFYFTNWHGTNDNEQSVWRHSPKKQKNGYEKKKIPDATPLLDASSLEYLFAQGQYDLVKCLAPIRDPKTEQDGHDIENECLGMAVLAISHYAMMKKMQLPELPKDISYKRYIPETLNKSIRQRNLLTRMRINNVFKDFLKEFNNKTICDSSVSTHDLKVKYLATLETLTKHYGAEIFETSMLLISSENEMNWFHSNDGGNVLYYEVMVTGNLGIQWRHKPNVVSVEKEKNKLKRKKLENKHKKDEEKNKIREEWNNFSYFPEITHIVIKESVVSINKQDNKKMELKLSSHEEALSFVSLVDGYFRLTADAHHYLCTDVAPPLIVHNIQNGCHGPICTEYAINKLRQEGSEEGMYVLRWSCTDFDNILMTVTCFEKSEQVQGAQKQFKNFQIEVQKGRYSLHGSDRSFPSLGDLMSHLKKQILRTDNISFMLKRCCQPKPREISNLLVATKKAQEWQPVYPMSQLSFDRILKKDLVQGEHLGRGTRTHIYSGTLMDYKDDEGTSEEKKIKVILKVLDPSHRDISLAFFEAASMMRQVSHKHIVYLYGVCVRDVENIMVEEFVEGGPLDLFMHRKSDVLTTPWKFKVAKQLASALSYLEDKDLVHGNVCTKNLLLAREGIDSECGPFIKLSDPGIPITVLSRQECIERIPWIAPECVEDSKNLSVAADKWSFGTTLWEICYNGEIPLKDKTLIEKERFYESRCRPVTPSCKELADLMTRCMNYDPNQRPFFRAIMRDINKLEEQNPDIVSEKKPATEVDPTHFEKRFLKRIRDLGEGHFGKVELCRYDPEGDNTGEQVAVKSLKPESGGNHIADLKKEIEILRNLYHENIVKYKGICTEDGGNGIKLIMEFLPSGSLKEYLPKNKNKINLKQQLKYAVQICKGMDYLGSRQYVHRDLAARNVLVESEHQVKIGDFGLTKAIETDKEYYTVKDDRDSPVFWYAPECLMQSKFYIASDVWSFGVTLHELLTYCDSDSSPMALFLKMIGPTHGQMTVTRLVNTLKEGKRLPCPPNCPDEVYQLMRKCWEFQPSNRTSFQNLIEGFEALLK
Experimental: as §5, §6
(§7) Tested compounds were dissolved in 100% DMSO, and obtained stock solutions were serially diluted in the reaction buffer (50 mM Tris pH 7.5, 10 mM MgCl2, 0.25 mM EGTA, 0.1 mM Na3VO4, 0.01% Triton X-100, 2.5 mM DTT). Recombinant kinases JAK1 (ProQinase), JAK2, or JAK3 (Carna Biosciences) were diluted in the dilution buffer (50 mM Tris-HCl pH 7.5, 150 mM NaCl, 10% glycerol, 0.05% Triton X-100, 1 mM DTT) to the final concentration 3 ng/μL (JAK1), 0.1 ng/μL (JAK2), or 0.2 ng/μL (JAK3). 5 μL of obtained solution of the compounds and 5 μL of the solution of respective kinases were added to the well of a 96-well plate. To initiate interaction between tested compounds and an enzyme, the plate was incubated for 10 minutes at 25° C. in a Plate-Thermo-Shaker with orbital stirring at 400 rpm. Wells of a negative control contained all reagents as mentioned above with the exception of tested compounds and kinase, and wells of a positive controls contained all reagents as mentioned above with the exception of tested compounds. Enzymatic reaction was initiated by the addition of 15 μL of the following solution: 5× concentrated reaction buffer (50 mM Tris pH 7.5, 10 mM MgCl2, 0.25 mM EGTA, 0.1 mM Na3VO4, 0.01% Triton X-100, 2.5 mM DTT), water, 30 μM ATP and for particular kinases: JAK1—60 μM peptide IRS-1 (Enzo), JAK2 or JAK3—10 μM peptide IGF-1Rtide (Lipopharm). Then the plate was incubated for 1 hour at 25° C. in a Plate-Thermo-Shaker, with orbital stirring at 400 rpm. Detection of ADP formed in the enzymatic reaction was then performed using ADP-Glo Kinase Assay kit (Promega). For this purpose, to the well of the 96-well plate 25 μL of ADP-Glo Reagent were added, and the plate was incubated for 40 minutes at 25° C. in a Plate-Thermo-Shaker with orbital stirring at 400 rpm. Then to the well of the 96-well plate 50 μL of Kinase Detection Reagent were added and the plate was incubated for 30 minutes at 25° C. in a Plate-Thermo-Shaker with orbital stirring at 400 rpm. After incubation, luminescence intensity was measured using Victor×Light luminometer (Perkin Elmer, Inc.).
as §4, with “luminescence measurement” for “luminescence intensity measurements”, “in wells” for “in well”, “control wells, IC50” for “control wells EC50”
(§8) Averaged results of kinases JAK inhibition activity for selected compounds of the present invention are presented below in Table 1.

Recombinant kinase JAK3 = Recombinant kinase JAK3 (Homo sapiens (Human), UniProt P52333); assay: In vitro JAK kinase inhibition assay (ADP-Glo), JAK3; type: biochemical; conditions: 30 μM ATP, peptide IGF-1Rtide, averaged
Sequence of Recombinant kinase JAK3 (P52333 whole entry): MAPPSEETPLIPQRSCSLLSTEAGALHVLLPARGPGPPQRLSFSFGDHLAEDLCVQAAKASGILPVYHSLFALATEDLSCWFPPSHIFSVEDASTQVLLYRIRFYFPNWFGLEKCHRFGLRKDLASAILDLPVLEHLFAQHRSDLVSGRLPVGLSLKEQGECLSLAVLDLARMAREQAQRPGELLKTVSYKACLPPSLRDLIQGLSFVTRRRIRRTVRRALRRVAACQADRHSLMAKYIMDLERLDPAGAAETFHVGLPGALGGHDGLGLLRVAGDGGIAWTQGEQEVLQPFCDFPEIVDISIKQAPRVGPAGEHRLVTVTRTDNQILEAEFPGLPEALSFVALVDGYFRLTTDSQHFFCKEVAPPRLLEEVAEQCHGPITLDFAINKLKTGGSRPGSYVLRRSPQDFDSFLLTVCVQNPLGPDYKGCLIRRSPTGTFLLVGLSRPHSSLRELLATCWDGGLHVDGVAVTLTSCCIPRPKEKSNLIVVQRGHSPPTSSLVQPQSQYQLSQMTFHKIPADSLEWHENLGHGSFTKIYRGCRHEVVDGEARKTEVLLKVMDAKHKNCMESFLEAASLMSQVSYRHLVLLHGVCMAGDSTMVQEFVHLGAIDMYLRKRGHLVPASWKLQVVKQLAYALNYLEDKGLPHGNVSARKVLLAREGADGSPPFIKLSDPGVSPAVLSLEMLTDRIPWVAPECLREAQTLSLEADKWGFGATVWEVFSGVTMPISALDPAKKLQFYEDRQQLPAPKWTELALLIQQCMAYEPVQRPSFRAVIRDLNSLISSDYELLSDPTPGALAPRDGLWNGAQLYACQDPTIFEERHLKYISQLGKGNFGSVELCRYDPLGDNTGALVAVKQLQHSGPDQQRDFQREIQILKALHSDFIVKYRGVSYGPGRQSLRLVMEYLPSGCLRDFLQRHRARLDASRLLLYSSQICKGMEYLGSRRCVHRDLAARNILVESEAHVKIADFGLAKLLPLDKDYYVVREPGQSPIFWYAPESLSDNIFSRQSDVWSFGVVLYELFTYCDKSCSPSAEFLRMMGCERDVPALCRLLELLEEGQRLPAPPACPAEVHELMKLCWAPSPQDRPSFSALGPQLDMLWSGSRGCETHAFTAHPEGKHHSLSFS
Experimental: as §5, §6, §7
as §4, with “luminescence measurement” for “luminescence intensity measurements”, “in wells” for “in well”, “control wells, IC50” for “control wells EC50”
as §8

TF-1 cells [2] = assay: TF-1 cells viability in vitro in the presence of IL-3 (JAK2 activation); type: cell-based; conditions: Homo sapiens, 5 ng/mL IL-3, 72 hours, ATPlite, read-out: JAK2 IL3 (EC50, inhibition of viability of TF-1 cells)
Experimental: as §1, §2
as §3, with “TF-1 cells (DSMZ no.: ACC 334) in culture medium (80% RPMI 1640+20% FBS) ad in the presence of 5 ng/mL IL-3 or 20 ng/mL IL-4 were deposited on 96-well plates in the volume of 90 μl per well, 10 thousands of cells per well.” left out
as §4, with “5.03, by fitting points of the curve using non-linear regression method.” left out

Row | Compound | pIC50 (TF-1 cells [1]) | JAK2/JAK1,3 Ratio (TF-1 cells [1]) | pIC50 (Recombinant kinase JAK2) | pIC50 (Recombinant kinase JAK1) | pIC50 (Recombinant kinase JAK3) | pIC50 (TF-1 cells [2])
1 | COc1ncc(-c2cc3ncc(C(N)=O)c(N[C@@H]4CCN(c5ccc(C#N)nn5)CC4(C)C)n3n2)cn1 [Example 8, (R)-7-((1-(6-Cyanopyridazin-3-yl)-3,3-dimethylpiperidin-4-yl)amino)-2-(2-methoxy-pyrimidin-5-yl)pyrazolo[1,5-a]pyrimidine-6-carboxamide] | 6.69 | 10 | 7.57 | 8.07 | 8.65 | 5.69
2 | CCOc1ncc(-c2cc3ncc(C(N)=O)c(N[C@@H]4CCN(c5ccc(C#N)nn5)CC4(C)C)n3n2)cn1 [Example 9, (R)-7-((1-(6-Cyanopyridazin-3-yl)-3,3-dimethylpiperidin-4-yl)amino)-2-(2-ethoxy-pyrimidin-5-yl)pyrazolo[1,5-a]pyrimidine-6-carboxamide] | – | – | 7.05 | 7.32 | 7.73 | –
3 | CC1(C)CN(c2ccc(C#N)nn2)CC[C@H]1Nc1c(C(N)=O)cnc2cc(-c3cccnc3)nn12 [Example 3, (R)-7-((1-(6-Cyanopyridazin-3-yl)-3,3-dimethylpiperidin-4-yl)amino)-2-(pyridin-3-yl)pyrazolo[1,5-a]pyrimidine-6-carboxamide] | – | – | 7.51 | 8.35 | 8.80 | –
4 | COc1ccc(-c2cc3ncc(C(N)=O)c(N[C@@H]4CCN(c5ccc(C#N)nn5)CC4(C)C)n3n2)cc1 [Example 1, (R)-7-((1-(6-Cyanopyridazin-3-yl)-3,3-dimethylpiperidin-4-yl)amino)-2-(4-methoxy-phenyl)pyrazolo[1,5-a]pyrimidine-6-carboxamide] | 6.46 | 2.4 | 7.72 | 8.74 | 8.92 | 6.08
5 | COc1ccc(F)c(-c2cc3ncc(C(N)=O)c(N[C@@H]4CCN(c5ccc(C#N)nn5)CC4(C)C)n3n2)c1 [Example 2, (R)-7-((1-(6-Cyanopyridazin-3-yl)-3,3-dimethylpiperidin-4-yl)amino)-2-(2-fluoro-5-methoxyphenyl)pyrazolo[1,5-a]pyrimidine-6-carboxamide] | 6.62 | 5 | 7.23 | 8.43 | 8.42 | 5.92
6 | CC1(C)CN(c2ccc(C#N)nn2)CC[C@H]1Nc1c(C(N)=O)cnc2cc(-c3ccc(N)nc3)nn12 [Example 6, (R)-2-(6-Aminopyridin-3-yl)-7-((1-(6-cyanopyridazin-3-yl)-3,3-dimethylpiperidin-4-yl)amino)pyrazolo[1,5-a]pyrimidine-6-carboxamide] | 6.44 | 9.2 | 8.53 | 9.42 | 9.80 | 5.48
7 | CC1(C)CN(c2ccc(C#N)nn2)CC[C@H]1Nc1c(C(N)=O)cnc2cc(-c3ccc(F)nc3)nn12 [Example 10, (R)-7-((1-(6-Cyanopyridazin-3-yl)-3,3-dimethylpiperidin-4-yl)amino)-2-(6-fluoro-pyridin-3-yl)pyrazolo[1,5-a]pyrimidine-6-carboxamide] | 6.95 | 11.5 | 7.89 | 8.63 | 9.22 | 5.89
8 | CCOc1ccc(-c2cc3ncc(C(N)=O)c(N[C@@H]4CCN(c5ccc(C#N)nn5)CC4(C)C)n3n2)cn1 [Example 5, (R)-7-((1-(6-Cyanopyridazin-3-yl)-3,3-dimethylpiperidin-4-yl)amino)-2-(6-ethoxy-pyridin-3-yl)pyrazolo[1,5-a]pyridimine-6-carboxamide] | – | – | 7.46 | 8.09 | 8.74 | –
